One block for each compound: values may come before it. Where a SMILES comes first, the peptide text is derived from it. [ ]: non-standard residue; d: D form. Kyn = Nc1ccccc1C(=O)C[CH](N)C(=O)O
Assays:
[1] = Absorbance spectrum (ultraviolet-visible spectroscopy, diode array detector); format: physicochemical; conditions: for absorbance region (in words): FIG. 1 and 2
Description: High pressure liquid chromatography: Samples were suspended in ethanol (Sigma Aldrich 103343081, CAS 64-17-5) and injected onto a reverse phase base deactivated silica C-18 column, […], 150×4.6 mm (Hypersil 9867). This column was temperature controlled at 35° C. using a Shimadzu CTO-10A column oven. Samples were injected with a Shimadzu SIL-10AD VP auto injector. The program was run using a Shimadzu LC1-20AD pump system, and detection was monitored with ultraviolet-visible spectroscopy from 200 to 700 nm using a Shimadzu SPD-M20A diode array detector.

[2] = Determination of maximal UV absorbance, extinction coefficients and critical wavelengths (UV visible spectroscopy); format: physicochemical; conditions: for peak absorbance: UV visible spectroscopy, diluted in ethanol; for critical wavelength: in vitro, 90% of the total absorbance integrated from 290 to 400 nm
Description: Extinction coefficients were determined by measuring the dry mass of each compounds and diluting it serially in ethanol (CAS […]). A series of concentrations were tested with UV visible spectroscopy.
In vitro critical wavelengths were determined by integrating the total absorbance from 290 to 400 nm and finding the region under that curve from higher energy to lower energy that is equal to 90% of the total absorbance, similar to that described by Diffey B. L., et al. J. Am. Acad. Dermatol. 2000, 43, 1024-1035.

[3] = OxiSelect Hydroxyl Radical Antioxidant Capacity (HORAC) Activity Assay; format: biochemical; conditions: for antioxidant potential (HORAC) compared with gallic acid: result in words
Source text: An OxiSelect Hydroxyl Radical Antioxidant Capacity (HORAC) Activity Assay (Cell Biolabs Inc. catalog #STA-346-T) was used to determine the antioxidant potential of compound 4 (butyl 4-(2-aminophenyl)-2-(4-(2-aminophenyl)-2-butyramido-4-oxobutanamido)-4-oxobutanoate) following the manufacturer's protocol. Gallic Acid (GA) was used as antioxidant Calibrator: The HORAC assay was used to evaluate the application of the compounds of the invention as antioxidant.
A small amount of compound 4 was resuspended in assay diluent and the concentration determined using the extinction coefficient previously determined at 368 nm (6070 M^−1 cm^−1). The concentration of the stock solution was 624 μM. Three concentrations of the compound were tested in the assay: 468 μM, 312 μM, and 156 μM. The assay was run in a clear bottomed 96-well plate using a Molecular Devices SpectraMax M2 with an excitation wavelength of 480 nm and an emission wavelength of 530 nm. The emission wavelength cutoff was set to 515 nm. The photomultiplier sensitivity set to medium. The plate was read once a minute for 60 minutes.
Compounds 42, 43, 44, and 46, were tested for their antioxidant capacity as described as previously described using an OxiSelect Hydroxyl Radical Antioxidant Capacity (HORAC) Activity Assay (Cell Biolabs Inc. catalog #sta-346-T).

skin = assay: Skin protection against damage by UV (erythema); format: in vivo; conditions: 10% (w/w) solution at 2 mg/cm^2 on skin, Sperti Sun Lamp 20 cm for 10 min, vs unprotected skin
Description: To test the protective capability of this class of compounds against damage to skin by UV, a 10% (w/w) solution of compounds was applied to skin at 2 mg/cm^2 and allowed to dry for 15 minutes. UV light was introduced using a […] Sun Lamp (model Miami P107). The application area on the skin was held facing the lamp at a distance of 20 cm for 10 min.

SMILES: Nc1ccccc1C(=O)CC(NC(=O)CCC(=O)O)C(=O)O (centres unmarked) [Compound 42, 4-(2-aminophenyl)-2-(3-carboxypropanamido)-4-oxobutanoic acid]
antioxidant potential (HORAC) compared with gallic acid [3]: equal, or greater than, gallic acid | erythema after UV exposure (skin): significantly reduced erythema

SMILES: COC(=O)C(CC(=O)c1ccccc1N)NC(=O)C[N+](C)(C)C (centres unmarked) [Compound 43, 2-((4-(2-aminophenyl)-1-methoxy-1,4-dioxobutan-2-yl)amino)-N,N,N-trimethyl-2-oxoethan-1-aminium]
antioxidant potential (HORAC) compared with gallic acid [3]: equal, or greater than, gallic acid

SMILES: CC(=O)NC(CC(=O)c1ccccc1N)C(N)=O (centres unmarked) [Compound 44, 2-acetamido-4-(2-aminophenyl)-4-oxobutanamide]
antioxidant potential (HORAC) compared with gallic acid [3]: equal, or greater than, gallic acid

SMILES: Nc1ccccc1C(=O)CC(NC(=O)CCCC(=O)O)C(=O)O (centres unmarked) [Compound 46, 5-((3-(2-aminophenyl)-1-carboxy-3-oxopropyl)amino)-5-oxopentanoic acid]
antioxidant potential (HORAC) compared with gallic acid [3]: equal, or greater than, gallic acid

Further lines, with some results ahead:

absorbance upper wavelength limit ([1]; FIG. 1): up to 410 nm | absorbance region (in words) [1]: strong absorbance in the UVA region
SMILES: COC(=O)C(CC(=O)c1ccccc1N)NC(=O)C(CC(=O)c1ccccc1N)NC(C)=O (centres unmarked) [Compound 1, methyl 2-(2-acetamido-4-(2-aminophenyl)-4-oxobutanamido)-4-(2-aminophenyl)-4-oxobutanoate] (Ac-[Kyn]-[Kyn]-OMe; configuration not given here)

absorbance region (in words) [1]: strong absorbance in the UVB region
SMILES: CCCC(=O)Nc1ccccc1C(=O)CC(NC(C)=O)C(=O)NC(CC(=O)c1ccccc1NC(=O)CCC)C(=O)OC (centres unmarked) [Compound 2, Methyl 2-(2-acetamido-4-(2-butyramidophenyl)-4-oxobutanamido)-4-(2-butyramidophenyl)-4-oxobutanoate]

peak absorbance [2]: around 368 nm | critical wavelength [2]: 385 nm
SMILES: CCCCOC(=O)C(CC(=O)c1ccccc1N)NC(=O)C(CC(=O)c1ccccc1N)NC(=O)CCC (centres unmarked) [Compound 4, butyl 4-(2-aminophenyl)-2-(4-(2-aminophenyl)-2-butyramido-4-oxobutanamido)-4-oxobutanoate]
antioxidant potential (HORAC) ([3]; tested at 468 μM, 312 μM and 156 μM, gallic acid as calibrator): 1.8 gallic acid equivalents per mole

peak absorbance [2]: around 325 nm | critical wavelength [2]: 355 nm | extinction coefficient ([2]; slope of absorbance vs concentration, in ethanol, at peak absorbance): 4600 M⁻¹ cm⁻¹
SMILES: CCCCOC(=O)C(CC(=O)c1ccccc1NC(=O)CCC)NC(=O)C(CC(=O)c1ccccc1NC(=O)CCC)NC(=O)CCC (centres unmarked) [Compound 5, butyl 2-(2-butyramido-4-(2-butyramidophenyl)-4-oxobutanamido)-4-(2-butyramidophenyl)-4-oxobutanoate]
